The text below walks through data of patent US11834453B2, “Substituted pyrimido[5,4-d]pyrimidines as HER2 inhibitors” (Array BioPharma Inc., priority 2020, dated 2023).

Data set [1] addresses EGFR (Homo sapiens (Human), UniProt P00533). The experiment in a line: ErbB enzyme assay (CisBio HTRF KinEASE-TK), Assay 3. Format: biochemical. Put shortly:
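Kinase incubated 30 min at 22 °C with 250 nM biotinylated TK substrate, 1 mM ATP and serially diluted compound in 25 mM HEPES pH 7.4, 10 mM MgCl2, 0.01% Triton X-100, 2% DMSO. Phosphorylation read by HTRF (Sa-XL665/TK-Ab-Cryptate); IC50 from 4-parameter fit of percent of control.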
(In general: Time-resolved FRET reads energy transfer from a long-lived donor to a nearby acceptor.)

For data set [2], the target named is EGFR wild type (EGFR WT) (Homo sapiens (Human), UniProt P00533). The experiment in a line: Cellular phosphorylation assay, EGF-stimulated EGFR phosphorylation in engineered NIH 3T3 cells, Phospho-EGFR DuoSet IC ELISA, Assay 5. Format: cell-based. In outline:
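NIH 3T3 cells expressing EGFR WT (20,000/well, attached overnight) were exposed to serially diluted compound for 1 h at 37 °C, then stimulated with 100 ng/ml rEGF for 10 min. Phospho-EGFR in lysates measured by sandwich ELISA optical density; IC50 from curves.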
A general note: An ELISA detects its analyte on a solid surface through an enzyme-linked reagent.

Data set [3] deals with ErbB2 with Exon 20 YVMA insertion (HER2-YVMA) (Homo sapiens (Human), UniProt P04626, INS775YVMA). As to the kind of experiment: Cellular phosphorylation assay, constitutive ErbB2 phosphorylation (Y1196) in engineered NIH 3T3 cells, Assay 4. Format: cell-based. In outline:
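Engineered NIH 3T3 cells expressing HER2-YVMA treated with compounds 1 h at 37 °C, then formaldehyde-fixed and methanol-permeabilized. pErbB2 Y1196 detected by in-cell infrared immunofluorescence, normalized to GAPDH. IC50 from the normalized curves.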

Data set [4] addresses MDR1 (P-gp) (Homo sapiens (Human), UniProt P08183). As to the kind of experiment: MDR1 transfected LLC-PK1 permeability/efflux, Assay 6. The following applies: pig, LLC-PK1, Assay 6 Pe Ratio, efflux ratio Papp(B-A)/Papp(A-B), MDR1 transfected LLC-PK1.
For data set [5], the target named is ErbB2 insYVMA (HER2-YVMA, SEQ ID NO: 2) (Homo sapiens, UniProt P04626, INS775YVMA/P1170A). As to the kind of experiment: biochemical. The following applies: ErbB2 insYVMA enzyme assay; read-out: Assay 1 IC50.
ErbB2 insYVMA (HER2-YVMA, SEQ ID NO: 2), sequence (P04626 with tags, fused parts or gaps INS775YVMA/P1170A limits assumed): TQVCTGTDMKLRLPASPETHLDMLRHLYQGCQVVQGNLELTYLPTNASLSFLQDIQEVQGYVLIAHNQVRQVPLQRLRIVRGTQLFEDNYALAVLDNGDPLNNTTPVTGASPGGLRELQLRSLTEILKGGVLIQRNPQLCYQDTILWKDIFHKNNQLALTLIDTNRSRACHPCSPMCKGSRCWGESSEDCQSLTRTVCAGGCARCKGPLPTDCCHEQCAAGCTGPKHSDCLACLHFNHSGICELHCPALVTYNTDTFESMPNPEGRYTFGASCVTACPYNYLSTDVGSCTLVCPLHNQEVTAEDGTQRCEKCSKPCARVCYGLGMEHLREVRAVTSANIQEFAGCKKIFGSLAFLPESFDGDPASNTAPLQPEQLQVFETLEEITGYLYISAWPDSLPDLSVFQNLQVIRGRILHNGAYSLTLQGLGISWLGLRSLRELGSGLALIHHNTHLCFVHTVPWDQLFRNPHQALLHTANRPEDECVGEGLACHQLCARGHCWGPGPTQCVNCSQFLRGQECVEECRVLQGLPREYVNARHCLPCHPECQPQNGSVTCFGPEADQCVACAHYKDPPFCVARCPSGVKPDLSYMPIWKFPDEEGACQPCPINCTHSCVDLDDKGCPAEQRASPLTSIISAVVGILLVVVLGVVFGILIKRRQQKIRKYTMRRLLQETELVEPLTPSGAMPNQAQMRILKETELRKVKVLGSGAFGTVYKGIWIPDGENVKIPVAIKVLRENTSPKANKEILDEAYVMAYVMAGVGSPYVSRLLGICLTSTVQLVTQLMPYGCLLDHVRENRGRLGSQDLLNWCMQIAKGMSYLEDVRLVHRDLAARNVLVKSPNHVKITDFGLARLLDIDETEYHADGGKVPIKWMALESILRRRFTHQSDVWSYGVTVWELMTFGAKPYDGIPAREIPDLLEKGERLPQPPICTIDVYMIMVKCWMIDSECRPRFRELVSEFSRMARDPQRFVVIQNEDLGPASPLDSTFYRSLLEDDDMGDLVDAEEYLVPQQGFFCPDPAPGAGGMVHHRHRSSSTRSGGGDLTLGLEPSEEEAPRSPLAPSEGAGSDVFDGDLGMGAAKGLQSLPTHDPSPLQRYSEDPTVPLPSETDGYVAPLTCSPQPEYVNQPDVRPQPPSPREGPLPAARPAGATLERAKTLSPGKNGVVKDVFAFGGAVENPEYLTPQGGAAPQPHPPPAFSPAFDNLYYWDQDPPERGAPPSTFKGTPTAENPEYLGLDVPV
In data set [6] the target is ErbB2 WT (Homo sapiens (Human), UniProt P04626). The experiment in a line: ErbB enzyme assay (CisBio HTRF KinEASE-TK), Assay 2. Format: biochemical. In outline: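 ErbB2 phosphorylates 250 nM biotin-TK substrate at 1 mM ATP in 25 mM HEPES pH 7.4, 10 mM MgCl2, 0.01% Triton X-100 and 2% DMSO, for 30 min at 22 °C. Product is detected by HTRF with Sa-XL665 and TK-Ab-Cryptate. Percent of control is set by DMSO-only wells and pre-quenched wells.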
ErbB2 WT, sequence (P04626 23-1255): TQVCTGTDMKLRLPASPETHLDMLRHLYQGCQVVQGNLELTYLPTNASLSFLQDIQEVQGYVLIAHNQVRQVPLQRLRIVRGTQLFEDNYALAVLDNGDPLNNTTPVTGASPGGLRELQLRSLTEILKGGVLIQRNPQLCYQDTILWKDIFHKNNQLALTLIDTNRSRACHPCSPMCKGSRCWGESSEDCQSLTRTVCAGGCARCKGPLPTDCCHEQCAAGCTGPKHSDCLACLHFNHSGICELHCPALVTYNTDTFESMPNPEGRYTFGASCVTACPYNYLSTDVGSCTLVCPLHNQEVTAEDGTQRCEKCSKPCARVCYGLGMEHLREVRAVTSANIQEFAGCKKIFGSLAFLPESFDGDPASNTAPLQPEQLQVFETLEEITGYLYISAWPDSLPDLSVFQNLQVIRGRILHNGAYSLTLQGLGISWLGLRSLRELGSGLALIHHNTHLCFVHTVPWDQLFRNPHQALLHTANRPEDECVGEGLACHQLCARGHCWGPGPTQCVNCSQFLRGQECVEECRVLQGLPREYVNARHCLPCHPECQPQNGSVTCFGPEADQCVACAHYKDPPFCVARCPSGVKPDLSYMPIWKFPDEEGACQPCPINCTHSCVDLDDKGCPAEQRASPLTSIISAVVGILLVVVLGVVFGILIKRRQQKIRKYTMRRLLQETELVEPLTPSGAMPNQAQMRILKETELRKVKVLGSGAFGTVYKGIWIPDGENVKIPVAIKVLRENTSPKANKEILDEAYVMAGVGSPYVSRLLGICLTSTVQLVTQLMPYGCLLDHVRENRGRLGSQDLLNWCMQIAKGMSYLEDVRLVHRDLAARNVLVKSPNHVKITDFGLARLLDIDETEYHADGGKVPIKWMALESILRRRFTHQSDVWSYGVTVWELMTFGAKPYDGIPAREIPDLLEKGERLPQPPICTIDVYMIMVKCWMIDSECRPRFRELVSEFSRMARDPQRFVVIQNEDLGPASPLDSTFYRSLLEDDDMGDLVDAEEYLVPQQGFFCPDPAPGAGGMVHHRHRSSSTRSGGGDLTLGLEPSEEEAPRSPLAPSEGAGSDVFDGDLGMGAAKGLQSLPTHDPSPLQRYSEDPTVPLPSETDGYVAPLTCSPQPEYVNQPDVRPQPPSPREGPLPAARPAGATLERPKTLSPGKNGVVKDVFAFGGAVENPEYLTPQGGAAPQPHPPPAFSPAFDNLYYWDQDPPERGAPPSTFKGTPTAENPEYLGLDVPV

EGFR wild type (EGFR WT), sequence (P00533 25-1210): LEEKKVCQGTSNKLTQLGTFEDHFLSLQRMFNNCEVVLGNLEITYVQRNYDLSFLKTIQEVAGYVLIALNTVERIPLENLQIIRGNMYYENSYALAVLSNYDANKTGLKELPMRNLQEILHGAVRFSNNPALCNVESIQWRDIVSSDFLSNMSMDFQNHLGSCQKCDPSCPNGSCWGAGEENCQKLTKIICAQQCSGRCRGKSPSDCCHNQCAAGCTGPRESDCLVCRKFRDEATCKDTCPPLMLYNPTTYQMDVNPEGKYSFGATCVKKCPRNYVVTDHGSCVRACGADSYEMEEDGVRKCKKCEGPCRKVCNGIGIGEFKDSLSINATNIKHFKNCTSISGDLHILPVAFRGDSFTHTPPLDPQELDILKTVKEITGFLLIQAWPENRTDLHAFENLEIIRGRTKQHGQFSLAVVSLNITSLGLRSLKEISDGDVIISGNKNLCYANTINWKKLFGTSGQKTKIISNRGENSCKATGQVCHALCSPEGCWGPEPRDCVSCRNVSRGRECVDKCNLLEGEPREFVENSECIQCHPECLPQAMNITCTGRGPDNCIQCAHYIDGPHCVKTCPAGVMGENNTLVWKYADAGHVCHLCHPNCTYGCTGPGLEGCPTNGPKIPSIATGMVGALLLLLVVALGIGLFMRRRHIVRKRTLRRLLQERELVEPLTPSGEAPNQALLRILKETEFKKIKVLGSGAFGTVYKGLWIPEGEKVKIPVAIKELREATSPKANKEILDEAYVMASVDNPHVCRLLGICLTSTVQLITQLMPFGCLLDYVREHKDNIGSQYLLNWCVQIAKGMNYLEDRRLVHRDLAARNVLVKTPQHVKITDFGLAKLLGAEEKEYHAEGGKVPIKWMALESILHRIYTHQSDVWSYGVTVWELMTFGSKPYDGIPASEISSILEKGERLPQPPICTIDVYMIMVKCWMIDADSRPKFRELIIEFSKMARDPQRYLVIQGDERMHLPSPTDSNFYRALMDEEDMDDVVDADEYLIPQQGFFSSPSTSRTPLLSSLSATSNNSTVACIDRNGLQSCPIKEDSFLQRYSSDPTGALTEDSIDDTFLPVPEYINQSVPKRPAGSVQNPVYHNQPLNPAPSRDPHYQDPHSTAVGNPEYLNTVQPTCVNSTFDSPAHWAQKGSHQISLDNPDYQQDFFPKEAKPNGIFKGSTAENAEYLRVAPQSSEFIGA
EGFR, sequence (P00533 25-1210): as above

As for `Cc1cc(Nc2ncnc3cnc(N4CCN(C)C4=O)nc23)ccc1Oc1ccc2c(c1)ncn2C` [Example 28, 1-methyl-3-(8-((3-methyl-4-((1-methyl-1H-benzo[d]imidazol-5-yl)oxy)phenyl)amino)pyrimido[5,4-d]pyrimidin-2-yl)imidazolidin-2-one], the IC50 is at least 10000 nM in data set [1]; at least 5000 nM in data set [2]; 24.8 nM in data set [3]; 68.7 nM in data set [5]; 163 nM in data set [6]. For the same molecule, the efflux ratio at 2 h, 1 μM in data set [4] amounted to 13.3.

`Cc1cc(Nc2ncnc3cnc(NC4=NC(C)(C)CO4)nc23)ccc1Oc1ccc2c(c1)ncn2C` [Example 32, N2-(4,4-dimethyl-4,5-dihydrooxazol-2-yl)-N8-(3-methyl-4-((1-methyl-1H-benzo[d]imidazol-5-yl)oxy)phenyl)pyrimido[5,4-d]pyrimidine-2,8-diamine]: the half-maximal inhibitory concentration (IC50) was at least 10000 nM in data set [1]; at least 5000 nM in data set [2]; 13.4 nM in data set [3]; 34.6 nM in data set [5]; 43.4 nM in data set [6]. Further, in data set [4], the efflux ratio at 2 h, 1 μM stood at 34.5.

Take `Cc1cc(Nc2ncnc3cnc(N4CCCC4=O)nc23)ccc1Oc1ccc2c(c1)ncn2C` [Example 34, 1-(8-((3-methyl-4-((1-methyl-1H-benzo[d]imidazol-5-yl)oxy)phenyl)amino)pyrimido[5,4-d]pyrimidin-2-yl)pyrrolidin-2-one]: the half-maximal inhibitory concentration (IC50) in data set [1] is at least 10000 nM; in data set [2], at least 5000 nM; in data set [3], 30.5 nM; in data set [5], 124 nM; in data set [6], 307 nM. In data set [4], the efflux ratio at 2 h, 1 μM was 6.3.

Take `CNc1ncc2ncnc(Nc3ccc(Oc4ccc5scnc5c4)c(C)c3)c2n1` [Example 50, N8-(4-(benzo[d]thiazol-5-yloxy)-3-methylphenyl)-N2-methylpyrimido[5,4-d]pyrimidine-2,8-diamine 2,2,2-trifluoroacetate]: the 50% inhibitory concentration (IC50) in data set [1] is 363 nM; in data set [2], at least 5000 nM; in data set [3], 93.6 nM; in data set [5] it was 4.8 nM; in data set [6] it was 11.4 nM. Also, in data set [4], the efflux ratio at 2 h, 1 μM was 1.2.

Consider `Cc1cc(Nc2ncnc3cnc(N4C[C@H]5CCCN5C4=O)nc23)ccc1Oc1ccc2c(c1)ncn2C` [Example 66, (R)-2-(8-((3-methyl-4-((1-methyl-1H-benzo[d]imidazol-5-yl)oxy)phenyl)amino)pyrimido[5,4-d]pyrimidin-2-yl)hexahydro-3H-pyrrolo[1,2-c]imidazol-3-one], for which the IC50 is at least 10000 nM in data set [1]; at least 5000 nM in data set [2]; 41.4 nM in data set [3]; 53.9 nM in data set [5]; 180 nM in data set [6]. For the same molecule, the efflux ratio at 2 h, 1 μM in data set [4] was determined as 11.6.

Take `Cc1cc(Nc2ncnc3cnc(N[C@@H]4CCNC[C@@H]4F)nc23)ccc1Oc1ccc2c(c1)ncn2C` [Example 83, N2-((3S,4R)-3-fluoropiperidin-4-yl)-N8-(3-methyl-4-((1-methyl-1H-benzo[d]imidazol-5-yl)oxy)phenyl)pyrimido[5,4-d]pyrimidine-2,8-diamine]: the concentration for half-maximal inhibition (IC50) in data set [1] is 5650 nM; in data set [2], at least 5000 nM; in data set [3], 20.3 nM; in data set [5], 12.4 nM; in data set [6], 34.5 nM. Besides, the efflux ratio at 2 h, 1 μM in data set [4] is 76.

On to `Cc1cc(Nc2ncnc3cnc(N[C@@H]4CCN(C)C[C@@H]4F)nc23)ccc1Oc1ccc2c(c1)ncn2C` [Example 84, N2-((3S,4R)-3-fluoro-1-methylpiperidin-4-yl)-N8-(3-methyl-4-((1-methyl-1H-benzo[d]imidazol-5-yl)oxy)phenyl)pyrimido[5,4-d]pyrimidine-2,8-diamine], for which the IC50 in data set [1] is 5380 nM; in data set [2] it was at least 5000 nM; in data set [3], 25.5 nM; in data set [5], 14 nM; in data set [6] it was 47.2 nM. Besides, in data set [4], the efflux ratio at 2 h, 1 μM was 10.2.

One may read the IC50 as the concentration needed to halve the response being measured. Broadly, the efflux ratio is the permeability from basolateral to apical divided by that in the opposite direction, in the common usage.
